Test results reported in patent publication US20240043473A1, “NOOTROPIC PEPTIDES FOR TREATING LYSOSOMAL STORAGE DISEASES” (Phoenix Nest Inc., priority 2021, published 2024).
“Also recorded” adds a separate entry of the source. No end group written: not given here.

Columns and labels:
[1] = test system: primary hippocampal neurons of Hgsnat^P304L mice; assay: Synaptic protein markers and BDNF in primary hippocampal neuronal cultures (immunocytochemistry); type: cell-based, mouse; details: 10 μM in culture media
Procedure: Model and Developmental time points: Primary hippocampal neuronal cultures established from E16 embryos of […] mice.
Method: The hippocampal neurons were cultured until DIV (Day In Vitro) 21 and 50% of media was changed every 3 days. AVP6 at a final concentration of 10 μM was added to the media when plating and during every media change. At DIV21 neurons were fixed and analysed by immunohistochemistry using markers of dendrites (MAP), axons (neurofilament protein, NF-H), and synaptic transmission (PSD95 and BDNF). Synaptic spine architecture and additional protein synaptic markers (Vglut/PSD95 and VAMP) will be studied.
Primary hippocampal neurons were cultured from the brains of embryo at gestational day 16 (E16). The hippocampi were isolated and treated with 2.5% trypsin solution (Sigma-Aldrich, T4674) for 15 min at 37° C. The cells were washed 3 times with Hank's Balanced Salt Solution (HBSS, Gibco, 14025-092) and mechanically dissociated by pipetting, using glass Pasteur pipettes with 3 different opening sizes (3, 2 and 1 mm). Then, they were counted with the viability dye trypan blue (ThermoFisher Scientific, 15250061), using a hemocytometer, and resuspended in Neurohasal media (Gibco, 21103-049) containing L-glutamine, B27, N2, penicillin and streptomycin. […]
Cultured mouse neurons at day in vitro (DIV) 21 or iPSC-derived neurons at D1V21 and DIV28 were fixed in 4% paraformaldehyde and 4% sucrose solution in PBS, pH 7.4, for 20 min. […] Coverslips were washed 3 times again in PBS and mounted on slides using ProLong Gold mounting medium, containing 4′,6-dianiidino-2-phenylindole (DAPI; Invitrogen, Cat #P36935), and analyzed by a Leica SP8-DSL or Leica TCS SPE confocal microscopes (×63 glycerol immersion objectives, N.A. 1.4). Images were processed with Leica Application Suite X (LAS-X) software or Photoshop 2021 (Adobe) and quantified using Fiji-ImageJ 1.50i software (National Institutes of Health, Bethesda, MD, USA). […] Soma or axon areas were defined by TUBB3, NEUN, or NF-M staining and, within this area, the appropriate markers were measured establishing a threshold. […]

[2] = Preliminary studies of activity and stability of the acetylated peptide
[3] = test system: CA1 pyramidal neurons in acute hippocampal slices from Hgsnat^Geo mice; assay: Miniature inhibitory postsynaptic currents (mIPSC), whole cell voltage clamp in acute hippocampal slices; type: cell-based, mouse; details: 10 μM bath application, P14-20
Procedure: Method: Whole cell voltage clamp electrophysiology recordings (miniature synaptic currents) were conducted on CA1 pyramidal neurons in acute hippocampal slices.
Acute hippocampal slices were prepared as follows. Briefly, animals were anaesthetized deeply with isoflurane and decapitated. The brain was dissected carefully and transferred rapidly into an ice-cold (0-4° C.) solution containing the following (in mM): 250 sucrose, 2 KCl, 1.25 NaH2PO4, 26 NaHCO3, 7 MgSO4, 0.5 CaCl2 and 10 glucose, pH 7.4. […] Whole-cell patch-clamp recordings were obtained from single cells in voltage- or current-clamp mode and only 1 cell per slice was recorded to enable post-hoc identification and immunohistochemical processing. […]
After obtaining whole cell configuration, passive membrane properties were monitored for 5 min and current clamp recordings were done to measure action potential characteristics. […] Cells were voltage clamped at −70 mV for mEPSCs recording and then held at 0 mV (calculated from the reversal potential of Cl) for mIPSCs recording. […] Both mEPSCs and mIPSCs were recorded for 7 min and a running template on a stable baseline (minimum of 30 events) was used for the analysis of miniature events on MiniAnalysis. […]

[4] = DIV21, Hgsnat^P311L (P304L) neurons

For “AVP6: N-terminally acetylated Semax, a nootropic peptide having the amino acid sequence of MEHFPGP (SEQ ID NO:1) (Ac-MEHFPGP)”, the “Synapsin 1-positive puncta” value [1, 4] was “increase in Synapsin 1-positive puncta; also recorded: rescues deficit of both proteins”, the “number of BDNF-positive punctae” value [1, 4] was “increase in the number of BDNF-positive punctae; also recorded: rescues deficit of both proteins” and the “levels of VGLUT1+, PSD-95+, SYN1+ and BDNF+ puncta” value ([1]; Hgsnat^P304L neurons) was “rescues reduced levels of synaptic markers; also recorded: significantly increased”. The “effect of N-terminal acetylation on activity and stability of the peptide” value [2] was “increase the activity and stability of the peptide” and the “mIPSC amplitude and frequency deficits” value [3] was “did not recover deficits in mIPSC amplitude and frequency; also recorded: did not increase frequencies or amplitudes of mIPSC; also recorded: does not increase”.
